Data as given in PubChem BioAssay AID1259407 (Chemical Carcinogenesis Research Information System (CCRIS), 2018).
Calls of active or inactive are those of the source. The rule behind the calls is not given here.

Test system: CCRIS mutagenicity, Ames/micronucleus/aberration tests
Assay: CCRIS mutagenicity studies
Source text: The CCRIS database contains chemical records with carcinogenicity, mutagenicity, tumor promotion, and tumor inhibition test results. It was developed by the National Cancer Institute (NCI). Data are derived from studies cited in primary journals, current awareness tools, NCI reports, and other sources. Test results have been reviewed by experts in carcinogenesis and mutagenesis.
CCRIS provides historical information from the years 1985 - 2011. It is no longer updated.
This is an archive assay for CCRIS mutagenicity studies.

[1] = Test System: AMES SALMONELLA TYPHIMURIUM, Strain/Indicator: TA98, Metabolic Activation: HAMSTER, LIVER, S-9, AROCLOR 1254 (10%), Method: PREINCUBATION
[2] = Test System: AMES SALMONELLA TYPHIMURIUM, Strain/Indicator: TA98, Metabolic Activation: NONE, Method: PREINCUBATION
[3] = Test System: AMES SALMONELLA TYPHIMURIUM, Strain/Indicator: TA98, Metabolic Activation: RAT, LIVER, S-9, AROCLOR 1254 (10%), Method: PREINCUBATION
[4] = Test System: AMES SALMONELLA TYPHIMURIUM, Strain/Indicator: TA100, Metabolic Activation: HAMSTER, LIVER, S-9, AROCLOR 1254 (10%), Method: PREINCUBATION
[5] = Test System: AMES SALMONELLA TYPHIMURIUM, Strain/Indicator: TA100, Metabolic Activation: NONE, Method: PREINCUBATION
[6] = Test System: AMES SALMONELLA TYPHIMURIUM, Strain/Indicator: TA100, Metabolic Activation: RAT, LIVER, S-9, AROCLOR 1254 (10%), Method: PREINCUBATION
[7] = Test System: AMES SALMONELLA TYPHIMURIUM, Strain/Indicator: TA1535, Metabolic Activation: HAMSTER, LIVER, S-9, AROCLOR 1254 (10%), Method: PREINCUBATION
[8] = Test System: AMES SALMONELLA TYPHIMURIUM, Strain/Indicator: TA1535, Metabolic Activation: NONE, Method: PREINCUBATION
[9] = Test System: AMES SALMONELLA TYPHIMURIUM, Strain/Indicator: TA1535, Metabolic Activation: RAT, LIVER, S-9, AROCLOR 1254 (10%), Method: PREINCUBATION
[10] = Test System: AMES SALMONELLA TYPHIMURIUM, Strain/Indicator: TA98, Metabolic Activation: NONE, Method: STANDARD PLATE
[11] = Test System: AMES SALMONELLA TYPHIMURIUM, Strain/Indicator: TA98, Metabolic Activation: RAT, LIVER, S-9, PHENOBARBITAL, Method: STANDARD PLATE

## COc1ccc(N)cc1N
Test System: AMES SALMONELLA TYPHIMURIUM, Strain/Indicator: TA97, Metabolic Activation: HAMSTER, LIVER, S-9, AROCLOR 1254 (10%), Method: PREINCUBATION
  mutagenic call: active; positive
Test System: AMES SALMONELLA TYPHIMURIUM, Strain/Indicator: TA97, Metabolic Activation: NONE, Method: PREINCUBATION
  mutagenic call: inactive; negative
Test System: AMES SALMONELLA TYPHIMURIUM, Strain/Indicator: TA97, Metabolic Activation: RAT, LIVER, S-9, AROCLOR 1254 (4 OR 10%), Method: STANDARD PLATE
  mutagenic call: active; positive
Test System: AMES SALMONELLA TYPHIMURIUM, Strain/Indicator: TA97, Metabolic Activation: RAT, LIVER, S-9, AROCLOR 1254 (10%), Method: PREINCUBATION
  mutagenic call: active; positive
[1]
  mutagenic call: active; positive
[2]
  mutagenic call: active; positive
[3]
  mutagenic call: active; positive
[4]
  mutagenic call: active; positive
[5]
  mutagenic call: inactive; negative
[6]
  mutagenic call: active; positive
[7]
  mutagenic call: inactive; negative
[8]
  mutagenic call: inactive; negative
[9]
  mutagenic call: inactive; negative
Test System: AMES SALMONELLA TYPHIMURIUM, Strain/Indicator: TA1537, Metabolic Activation: RAT, LIVER, S-9, AROCLOR 1254 (4 OR 10%), Method: STANDARD PLATE
  mutagenic call: active; positive
Test System: AMES SALMONELLA TYPHIMURIUM, Strain/Indicator: TA1538, Metabolic Activation: RAT, LIVER, S-9, AROCLOR 1254 (4 OR 10%), Method: STANDARD PLATE
  mutagenic call: active; positive
Test System: CHINESE HAMSTER V-79, Strain/Indicator: V-79/6-THIOGUANINE, Metabolic Activation: NONE, Method: SUSPENSION/PLATE
  mutagenic call: active; positive
Test System: CHINESE HAMSTER V-79, Strain/Indicator: V-79/6-THIOGUANINE, Metabolic Activation: RAT, LIVER, S-9, PHENOBARBITAL AND BETA-NAPHTHOFLAVONE, Method: SUSPENSION/PLATE
  mutagenic call: inactive; negative
Test System: E. COLI, Strain/Indicator: WP2 UVRA, Metabolic Activation: HAMSTER, LIVER, S-9, AROCLOR 1254, Method: STANDARD PLATE
  mutagenic call: inactive; negative
Test System: E. COLI, Strain/Indicator: WP2 UVRA, Metabolic Activation: HAMSTER, LIVER, S-9, Method: STANDARD PLATE
  mutagenic call: inactive; negative
Test System: E. COLI, Strain/Indicator: WP2 UVRA, Metabolic Activation: MOUSE, LIVER, S-9, AROCLOR 1254, Method: STANDARD PLATE
  mutagenic call: inactive; negative
Test System: E. COLI, Strain/Indicator: WP2 UVRA, Metabolic Activation: MOUSE, LIVER, S-9, Method: STANDARD PLATE
  mutagenic call: inactive; negative
Test System: E. COLI, Strain/Indicator: WP2 UVRA, Metabolic Activation: NONE, Method: STANDARD PLATE
  mutagenic call: inactive; negative
Test System: E. COLI, Strain/Indicator: WP2 UVRA, Metabolic Activation: RAT, LIVER, S-9, AROCLOR 1254, Method: STANDARD PLATE
  mutagenic call: inactive; negative
Test System: E. COLI, Strain/Indicator: WP2 UVRA, Metabolic Activation: RAT, LIVER, S-9, Method: STANDARD PLATE
  mutagenic call: inactive; negative
Test System: MOUSE LYMPHOMA, Strain/Indicator: L5178Y (TK+/TK-), Metabolic Activation: NONE, Method: SUSPENSION/PLATE
  mutagenic call: active; positive
Test System: MOUSE LYMPHOMA, Strain/Indicator: L5178Y (TK+/TK-), Metabolic Activation: RAT, LIVER, S-9, AROCLOR 1254, Method: SUSPENSION/PLATE
  mutagenic call: active; positive

## O=[N+]([O-])c1cccc2[nH]c3ccccc3c12
[10]
  mutagenic call: active; positive
[11]
  mutagenic call: active; positive
Test System: AMES SALMONELLA TYPHIMURIUM, Strain/Indicator: TA1537, Metabolic Activation: NONE, Method: STANDARD PLATE
  mutagenic call: inactive; negative
Test System: AMES SALMONELLA TYPHIMURIUM, Strain/Indicator: TA1537, Metabolic Activation: RAT, LIVER, S-9, PHENOBARBITAL, Method: STANDARD PLATE
  mutagenic call: inactive; negative
Test System: AMES SALMONELLA TYPHIMURIUM, Strain/Indicator: TA1538, Metabolic Activation: NONE, Method: STANDARD PLATE
  mutagenic call: active; positive
Test System: AMES SALMONELLA TYPHIMURIUM, Strain/Indicator: TA1538, Metabolic Activation: RAT, LIVER, S-9, PHENOBARBITAL, Method: STANDARD PLATE
  mutagenic call: active; positive
Test System: AMES SALMONELLA TYPHIMURIUM, Strain/Indicator: TA1977, Metabolic Activation: NONE, Method: STANDARD PLATE
  mutagenic call: inactive; negative
Test System: AMES SALMONELLA TYPHIMURIUM, Strain/Indicator: TA1977, Metabolic Activation: RAT, LIVER, S-9, PHENOBARBITAL, Method: STANDARD PLATE
  mutagenic call: inactive; negative

## Nc1ccn([C@@H]2CS[C@H](CO)O2)c(=O)n1
Test System: Human TK6 Lymphoblastoid Cells, Strain/Indicator: HPRT, Metabolic Activation: None, Method: Standard Plate
  mutagenic call: active; positive
Test System: Human TK6 Lymphoblastoid Cells, Strain/Indicator: TK, Metabolic Activation: None, Method: Standard Plate
  mutagenic call: active; positive
Test System: Mouse lymphoma, Strain/Indicator: L5178Y (tk+/tk-), Metabolic Activation: None, Method: Suspension/plate
  mutagenic call: inactive; negative
Test System: Mouse lymphoma, Strain/Indicator: L5178Y (tk+/tk-), Metabolic Activation: Rat, Liver, S-9, Aroclor 1254, Method: Suspension/plate
  mutagenic call: inactive; negative

## C/C=C1\C[C@@H](C)[C@](C)(OC(C)=O)C(=O)OC/C2=C/CN(C)CC[C@@H](OC1=O)C2=O
Test System: AMES SALMONELLA TYPHIMURIUM, Strain/Indicator: TA100, Metabolic Activation: HAMSTER, LIVER, S-9, PCB, Method: PREINCUBATION
  mutagenic call: inactive; negative; by authors criteria results are positive
Test System: AMES SALMONELLA TYPHIMURIUM, Strain/Indicator: TA100, Metabolic Activation: RAT, LIVER, S-9, PCB, Method: PREINCUBATION
  mutagenic call: active; positive
Test System: UDS RAT HEPATOCYTES, Strain/Indicator: THY INCORP, Metabolic Activation: NONE, Method: AUTORADIOGRAPHY
  mutagenic call: active; positive

## CCNCC
[1]
  mutagenic call: inactive; negative
[2]
  mutagenic call: inactive; negative
[3]
  mutagenic call: inactive; negative
[4]
  mutagenic call: inactive; negative
[5]
  mutagenic call: inactive; negative
[6]
  mutagenic call: inactive; negative
[7]
  mutagenic call: inactive; negative
[8]
  mutagenic call: inactive; negative
[9]
  mutagenic call: inactive; negative
Test System: AMES SALMONELLA TYPHIMURIUM, Strain/Indicator: TA1537, Metabolic Activation: HAMSTER, LIVER, S-9, AROCLOR 1254 (10%), Method: PREINCUBATION
  mutagenic call: inactive; negative
Test System: AMES SALMONELLA TYPHIMURIUM, Strain/Indicator: TA1537, Metabolic Activation: NONE, Method: PREINCUBATION
  mutagenic call: inactive; negative
Test System: AMES SALMONELLA TYPHIMURIUM, Strain/Indicator: TA1537, Metabolic Activation: RAT, LIVER, S-9, AROCLOR 1254 (10%), Method: PREINCUBATION
  mutagenic call: inactive; negative

## C=CC(C)(C)c1cc2cc3c(cc2oc1=O)OC(C(C)(C)OC(C)=O)C3 (stereo not given)
[10]
  mutagenic call: inactive; negative
[11]
  mutagenic call: inactive; negative

## COc1cccc2c1C(=O)c1c(O)c3c(c(O)c1C2=O)C[C@@](O)(C(C)=NNC(=O)c1ccccc1)C[C@@H]3O[C@H]1C[C@H](N)[C@H](O)[C@H](C)O1
Test System: AMES SALMONELLA TYPHIMURIUM, Strain/Indicator: TA97, Metabolic Activation: NONE, Method: STANDARD PLATE
  mutagenic call: inactive; negative
[10]
  mutagenic call: active; positive
Test System: AMES SALMONELLA TYPHIMURIUM, Strain/Indicator: TA100, Metabolic Activation: NONE, Method: STANDARD PLATE
  mutagenic call: inactive; negative
Test System: AMES SALMONELLA TYPHIMURIUM, Strain/Indicator: TA104, Metabolic Activation: NONE, Method: STANDARD PLATE
  mutagenic call: inactive; negative
Test System: AMES SALMONELLA TYPHIMURIUM, Strain/Indicator: TA2637, Metabolic Activation: NONE, Method: STANDARD PLATE
  mutagenic call: active; positive
